# Active and inactive are the calls of the source. The calls are words filed in the database; no cut-off is given here.
# Tests used:
# SW480 [1] = experiment: Antitumor activity against human SW480 cells assessed as upregulation of NDRG1 protein expression at 0.35 to 1.4 uM incubated for 24 hrs by immunoblotting assay; assay type: functional, cell-based; settings: dose 0.35-1.4 µM, DDE = dose-dependent effect
# HCT-116 [2] = experiment: Induction of apoptosis in human HCT-116 cells assessed as necrotic cells at 0.075 uM incubated for 48 hrs by Annexin V-FITC/PI staining based flow cytometry analysis (Rvb= 0.13%); assay type: functional
# SW480 [3] = experiment: Induction of apoptosis in human SW480 cells assessed as necrotic cells at 0.35 uM incubated for 48 hrs by Annexin V-FITC/PI staining based flow cytometry analysis (Rvb= 0.07%); assay type: functional
# [4] = Toxicity in Balb/c mouse xenografted with human HCT-116 cells assessed as body weight change at 3 mg/kg,ip administrated for 18 days by 3 times per week; assay type: organism-based; settings: in vivo, 432 h, time 18 day
# SW480 [5] = experiment: Induction of apoptosis in human SW480 cells assessed as late apoptotic cells at 0.35 uM incubated for 48 hrs by Annexin V-FITC/PI staining based flow cytometry analysis (Rvb= 5.26%); assay type: functional
# HCT-116 [6] = experiment: Anti-migratory activity against human HCT-116 cells assessed as downregulation of Snail protein expression at 0.075 to 0.3 uM incubated for 24 hrs by immunoblotting assay; assay type: functional, cell-based; settings: dose 0.075-0.3 µM
# HCT-116 [7] = experiment: Antimigratory activity against highly liver metastatic human HCT-116 cells assessed as upregulation of E-cadherin gene expression at 0.075 to 0.3 uM incubated for 24 hrs by RT-PCR method; assay type: functional, cell-based; settings: dose 0.075-0.3 µM
# SW480 [8] = experiment: Induction of apoptosis in human SW480 cells assessed as viable cells at 0.7 uM incubated for 48 hrs by Annexin V-FITC/PI staining based flow cytometry analysis (Rvb= 92.6%); assay type: functional; settings: read-out: Activity
# HCT-116 [9] = experiment: Cell cycle arrest in human HCT-116 cells assessed as accumulation at Sub-G1 phase at 0.075 uM incubated for 24 hrs by RNaseA/propidium iodide staining based flow cytometry (reference value: 3.66 %); assay type: functional
# SW480 [10] = experiment: Inhibition of colony formation in human SW480 cells at 0.35 to 1.4 uM incubated for 72 hrs by crystal violet staining based assay; assay type: functional, cell-based; settings: dose 0.35-1.4 µM, DDE = dose-dependent effect
# HCT-116 [11] = experiment: Antimigratory activity against highly liver metastatic human HCT-116 cells assessed as upregulation of NDRG1 protein expression at 0.075 to 0.3 uM incubated for 24 hrs by immunoblotting assay; assay type: functional, cell-based; settings: dose 0.075-0.3 µM
# HCT-116 [12] = experiment: Antimigratory activity against highly liver metastatic human HCT-116 cells assessed as upregulation of E-cadherin protein expression at 0.075 to 0.3 uM incubated for 24 hrs by immunoblotting assay; assay type: functional, cell-based; settings: dose 0.075-0.3 µM
# SW480 [13] = experiment: Induction of apoptosis in human SW480 cells assessed as upregulation of cleaved caspase-8 expression at 1.4 uM measured at 12 to 48 hrs by immunoblotting assay; assay type: functional, cell-based; settings: time 12-48 hrs, TDE = time-dependent effect
# SW480 [14] = experiment: Induction of apoptosis in human SW480 cells assessed as upregulation of cleaved caspase-9 expression at 1.4 uM measured after 48 hrs by immunoblotting assay; assay type: functional, cell-based
# SW480 [15] = experiment: Cell cycle arrest in human SW480 cells assessed as accumulation at Sub-G1 phase at 0.35 uM incubated for 24 hrs by RNaseA/propidium iodide staining based flow cytometry (reference value: 3.2 %); assay type: functional
# SW480 [16] = experiment: Induction of apoptosis in human SW480 cells assessed as early apoptotic cells at 0.7 uM incubated for 48 hrs by Annexin V-FITC/PI staining based flow cytometry analysis (Rvb= 2.07%); assay type: functional
# HCT-116 [17] = experiment: Anti-migratory activity against human HCT-116 cells assessed as downregulation of N-cadherin protein expression at 0.075 to 0.3 uM incubated for 24 hrs by immunoblotting assay; assay type: functional, cell-based; settings: dose 0.075-0.3 µM
# SW480 [18] = experiment: Cell cycle arrest in human SW480 cells assessed as accumulation at G0/G1 phase at 1.4 uM incubated upto 48 hrs by RNaseA/propidium iodide staining based flow cytometry; assay type: functional
# HCT-116 [19] = experiment: Cell cycle arrest in human HCT-116 cells assessed as accumulation at G2/M phase at 0.15 uM incubated for 24 hrs by RNaseA/propidium iodide staining based flow cytometry (reference value: 28.41 %); assay type: functional
# SW480 [20] = experiment: Cell cycle arrest in human SW480 cells assessed as accumulation at S phase at 0.7 uM incubated for 24 hrs by RNaseA/propidium iodide staining based flow cytometry (reference value: 16.7 %); assay type: functional
# HCT-116 [21] = experiment: Antitumor activity against human HCT-116 cells xenografted Balb/c mouse assessed as increase in NDRG1 protein expression at 1 mg/kg,ip administrated for 18 days by 3 times per week by immunoblotting assay; assay type: functional, organism-based; settings: time 18.0 day
# SW480 [22] = experiment: Inhibition of cell migration in human SW480 cells at 0.35 to 1.4 uM incubated for 24 hrs by wound-healing assay; assay type: functional, cell-based; settings: dose 0.35-1.4 µM, DDE = dose-dependent effect
# SW480 [23] = experiment: Cell cycle arrest in human SW480 cells assessed as downregulation of CDK6 protein expression at 0.35 to 1.4 uM incubated for 24 hrs by immunoblotting assay; assay type: functional, cell-based; settings: dose 0.35-1.4 µM
# HCT-116 [24] = experiment: Antimigratory activity against highly liver metastatic human HCT-116 cells assessed as upregulation of NDRG1 gene expression at 0.075 to 0.3 uM incubated for 24 hrs by RT-PCR method; assay type: functional, cell-based; settings: dose 0.075-0.3 µM
# SW480 [25] = experiment: Cell cycle arrest in human SW480 cells assessed as accumulation at G2/M phase at 1.4 uM incubated for 24 hrs by RNaseA/propidium iodide staining based flow cytometry (reference value: 24.74 %); assay type: functional
# SW480 [26] = experiment: Anti-migratory activity against human SW480 cells assessed as upregulation of E-cadherin protein expression at 0.35 to 1.4 uM incubated for 24 hrs by immunoblotting assay; assay type: functional, cell-based; settings: dose 0.35-1.4 µM
# SW480 [27] = experiment: Induction of apoptosis in human SW480 cells assessed as upregulation of cleaved PARP expression at 1.4 uM measured at 12 to 48 hrs by immunoblotting assay; assay type: functional, cell-based; settings: time 12-48 hrs, TDE = time-dependent effect
# SW480 [28] = experiment: Anti-migratory activity against human SW480 cells assessed as upregulation of E-cadherin gene expression at 0.35 to 1.4 uM incubated for 24 hrs by RT-PCR assay; assay type: functional, cell-based; settings: dose 0.35-1.4 µM
# HCT-116 [29] = experiment: Induction of apoptosis in human HCT-116 cells assessed as upregulation of cleaved PARP expression at 0.3 uM measured at 12 to 48 hrs by immunoblotting assay; assay type: functional, cell-based; settings: time 12-48 hrs, TDE = time-dependent effect
# SW480 [30] = experiment: Induction of apoptosis in human SW480 cells assessed as early apoptotic cells at 0.35 uM incubated for 48 hrs by Annexin V-FITC/PI staining based flow cytometry analysis (Rvb= 2.07%); assay type: functional
# HCT-116 [31] = experiment: Induction of apoptosis in human HCT-116 cells assessed as early apoptotic cells at 0.075 uM incubated for 48 hrs by Annexin V-FITC/PI staining based flow cytometry analysis (Rvb= 2.51%); assay type: functional
# SW480 [32] = experiment: Anti-migratory activity against human SW480 cells assessed as downregulation of N-cadherin protein expression at 0.35 to 1.4 uM incubated for 24 hrs by immunoblotting assay; assay type: functional, cell-based; settings: dose 0.35-1.4 µM
# SW480 [33] = experiment: Anti-migratory activity against human SW480 cells assessed as downregulation of N-cadherin gene expression at 0.35 to 1.4 uM incubated for 24 hrs by RT-PCR assay; assay type: functional, cell-based; settings: dose 0.35-1.4 µM
# SW480 [34] = experiment: Induction of apoptosis in human SW480 cells assessed as necrotic cells at 1.4 uM incubated for 48 hrs by Annexin V-FITC/PI staining based flow cytometry analysis (Rvb= 0.07%); assay type: functional
smiles,measurement,setting,value
C[C@@H]1\C=C/C=C/C=C\C=C\C=C\C(=O)C2=C(O)C(=O)C[C@@]2(C)/C=C/C=C\C=C/C(=O)NC1,Activity,SW480 [1],Dde
same,Activity,HCT-116 [2],0.16%
same,Activity,SW480 [3],0.06%
same,Activity,[4],Non-Toxic
same,Activity,SW480 [5],4.36%
same,Activity,HCT-116 [6],Active
same,Activity,HCT-116 [7],Active
same,viability at 0.7 µM,SW480 [8],69.8%
same,Activity,HCT-116 [9],4.46%
same,inhibition,SW480 [10],Dde
same,Activity,HCT-116 [11],Active
same,Activity,HCT-116 [12],Active
same,Activity,SW480 [13],Tde
same,Activity,SW480 [14],Active
same,Activity,SW480 [15],5.1%
same,Activity,SW480 [16],12.31%
same,Activity,HCT-116 [17],Active
same,Activity,SW480 [18],Active
same,Activity,HCT-116 [19],21.81%
same,Activity,SW480 [20],15.28%
same,Activity,HCT-116 [21],Active
same,inhibition,SW480 [22],Dde
same,Activity,SW480 [23],Active
same,Activity,HCT-116 [24],Active
same,Activity,SW480 [25],19.26%
same,Activity,SW480 [26],Active
same,Activity,SW480 [27],Tde
same,Activity,SW480 [28],Active
same,Activity,HCT-116 [29],Tde
same,Activity,SW480 [30],2.62%
same,Activity,HCT-116 [31],8.29%
same,Activity,SW480 [32],Active
same,Activity,SW480 [33],Active
same,Activity,SW480 [34],0.19%

# Reference: ChEMBL document CHEMBL5215006, “Antitumor Activity of Piceamycin by Upregulation of N-Myc Downstream-Regulated Gene 1 in Human Colorectal Cancer Cells” (J Nat Prod, 2022)
